Measured values published in ChEMBL document CHEMBL1909046, “DrugMatrix in vitro pharmacology data”.
*1 amine or outer side, *2 acyl side, *3 side chain or, on linkers, in order; H or OH if unused. Where a SMILES comes first, the peptide text is derived from it. Bridges are numbered along the chain shown (N, C = ends). Roman numbers before positions name the chains, in order. [ ]: non-standard residue; d: D form. Actinocin(1to9) = Cc1c2oc3c(C)ccc(C(=O)[*:2])c3nc-2c(C(=O)[*:1])c(N)c1=O; NMeV = CN[C@H](C(=O)O)C(C)C; Sar = CNCC(=O)O

What was measured:
[1] = target: T1, Calcitonin receptor (Homo sapiens, UniProt P30988); type: cell membranes, Membrane; conditions: t47d; further: in other assays of this panel Not Active means under 50% inhibition at 10 µM
T1 sequence (P30988 whole entry): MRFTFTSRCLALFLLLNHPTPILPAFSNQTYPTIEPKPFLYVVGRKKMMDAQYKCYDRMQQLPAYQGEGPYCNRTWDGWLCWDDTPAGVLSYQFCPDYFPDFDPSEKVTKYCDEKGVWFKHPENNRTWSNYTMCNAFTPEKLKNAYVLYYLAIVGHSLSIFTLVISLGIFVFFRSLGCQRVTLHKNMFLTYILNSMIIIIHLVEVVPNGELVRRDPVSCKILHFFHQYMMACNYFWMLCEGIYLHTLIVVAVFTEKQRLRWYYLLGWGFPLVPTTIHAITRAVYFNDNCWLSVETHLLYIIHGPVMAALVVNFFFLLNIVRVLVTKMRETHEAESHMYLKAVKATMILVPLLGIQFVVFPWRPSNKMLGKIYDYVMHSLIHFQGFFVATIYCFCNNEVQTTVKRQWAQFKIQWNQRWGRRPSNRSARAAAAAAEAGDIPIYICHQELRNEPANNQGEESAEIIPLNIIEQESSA

[2] = DRUGMATRIX: ATPase, Na+/K+ enzyme inhibition (substrate: ATP); type: tissue-based, Sus scrofa, Heart; conditions: Not Active = under 50% inhibition at 10 µM
[3] = DRUGMATRIX: Purinergic P2X radioligand binding (ligand: [3H] alpha, beta-Methylene-ATP); type: cell membranes, Oryctolagus cuniculus, New Zealand albino, Urinary bladder, Membrane; conditions: Not Active = under 50% inhibition at 10 µM
[4] = target: T2, Receptor-type tyrosine-protein phosphatase C (Homo sapiens, UniProt P08575); design: species or system Escherichia coli;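 further: inhibition of CD45 enzyme activity measured using DiFMUP as substrate; in other assays of this panel Not Active means under 50% inhibition at 10 µM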
T2 sequence (P08575 whole entry): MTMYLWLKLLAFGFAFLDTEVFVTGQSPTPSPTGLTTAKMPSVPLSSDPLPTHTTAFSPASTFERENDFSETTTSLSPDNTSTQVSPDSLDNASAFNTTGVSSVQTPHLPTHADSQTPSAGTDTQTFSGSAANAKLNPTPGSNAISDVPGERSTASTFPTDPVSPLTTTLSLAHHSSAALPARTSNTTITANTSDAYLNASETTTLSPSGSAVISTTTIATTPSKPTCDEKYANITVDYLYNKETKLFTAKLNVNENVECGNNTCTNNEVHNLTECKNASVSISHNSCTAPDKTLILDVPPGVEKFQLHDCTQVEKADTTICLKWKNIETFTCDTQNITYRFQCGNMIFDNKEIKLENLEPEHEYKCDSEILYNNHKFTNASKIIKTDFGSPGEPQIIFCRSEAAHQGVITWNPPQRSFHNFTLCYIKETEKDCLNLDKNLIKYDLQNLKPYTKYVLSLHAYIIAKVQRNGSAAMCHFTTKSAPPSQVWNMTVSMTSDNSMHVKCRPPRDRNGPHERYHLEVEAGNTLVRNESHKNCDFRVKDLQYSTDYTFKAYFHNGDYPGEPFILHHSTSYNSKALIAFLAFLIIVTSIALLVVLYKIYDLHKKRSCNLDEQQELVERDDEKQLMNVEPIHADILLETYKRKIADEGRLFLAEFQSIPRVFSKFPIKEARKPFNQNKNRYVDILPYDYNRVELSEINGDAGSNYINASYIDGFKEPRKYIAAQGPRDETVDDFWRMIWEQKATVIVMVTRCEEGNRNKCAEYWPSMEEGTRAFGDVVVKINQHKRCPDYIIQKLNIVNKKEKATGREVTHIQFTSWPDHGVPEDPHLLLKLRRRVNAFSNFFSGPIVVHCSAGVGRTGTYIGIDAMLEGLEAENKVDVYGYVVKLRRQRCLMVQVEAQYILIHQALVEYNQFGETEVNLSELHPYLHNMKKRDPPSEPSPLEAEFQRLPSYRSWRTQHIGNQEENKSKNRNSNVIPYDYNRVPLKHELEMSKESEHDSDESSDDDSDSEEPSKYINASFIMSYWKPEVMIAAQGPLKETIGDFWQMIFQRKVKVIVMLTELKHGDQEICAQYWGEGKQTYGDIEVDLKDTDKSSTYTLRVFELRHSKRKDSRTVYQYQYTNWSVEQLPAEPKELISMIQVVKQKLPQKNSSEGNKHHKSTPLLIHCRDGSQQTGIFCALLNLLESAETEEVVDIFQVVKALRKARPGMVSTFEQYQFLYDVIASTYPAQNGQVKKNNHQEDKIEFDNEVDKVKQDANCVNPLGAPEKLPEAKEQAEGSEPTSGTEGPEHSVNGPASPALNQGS

[5] = target: Cytochrome P450 2C9 (Homo sapiens, UniProt P11712); conditions: bti-tn-5b1-4; further: in other assays of this panel Not Active means under 50% inhibition at 10 µM
[6] = DRUGMATRIX: Calcium Channel Type L, Benzothiazepine radioligand binding (ligand: [3H] Diltiazem); type: cell membranes, Rattus norvegicus, Wistar, Brain, Membrane; conditions: Not Active = under 50% inhibition at 10 µM
[7] = target: C-C chemokine receptor type 5 (Homo sapiens, UniProt P51681); type: cell membranes, Membrane; conditions: hek293; further: in other assays of this panel Not Active means under 50% inhibition at 10 µM
[8] = target: T3, Leukotriene C4 synthase (Cavia porcellus, UniProt A6XA80); type: tissue-based, Lung
T3 sequence (A6XA80 whole entry): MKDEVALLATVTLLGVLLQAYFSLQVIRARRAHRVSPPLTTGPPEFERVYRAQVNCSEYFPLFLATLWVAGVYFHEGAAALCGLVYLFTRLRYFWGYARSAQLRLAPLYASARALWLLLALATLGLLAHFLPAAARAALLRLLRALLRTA

C-C chemokine receptor type 5, sequence (P51681 whole entry): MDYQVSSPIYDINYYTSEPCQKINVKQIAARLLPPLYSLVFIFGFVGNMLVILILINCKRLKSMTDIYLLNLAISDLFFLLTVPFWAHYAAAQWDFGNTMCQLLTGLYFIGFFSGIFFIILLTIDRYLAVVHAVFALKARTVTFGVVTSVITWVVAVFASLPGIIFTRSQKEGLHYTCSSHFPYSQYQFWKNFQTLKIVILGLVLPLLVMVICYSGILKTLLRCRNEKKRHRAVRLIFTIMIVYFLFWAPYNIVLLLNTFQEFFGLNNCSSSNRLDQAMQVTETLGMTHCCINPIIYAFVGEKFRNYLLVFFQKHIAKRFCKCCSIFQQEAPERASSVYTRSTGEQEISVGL
Cytochrome P450 2C9, sequence (P11712 whole entry): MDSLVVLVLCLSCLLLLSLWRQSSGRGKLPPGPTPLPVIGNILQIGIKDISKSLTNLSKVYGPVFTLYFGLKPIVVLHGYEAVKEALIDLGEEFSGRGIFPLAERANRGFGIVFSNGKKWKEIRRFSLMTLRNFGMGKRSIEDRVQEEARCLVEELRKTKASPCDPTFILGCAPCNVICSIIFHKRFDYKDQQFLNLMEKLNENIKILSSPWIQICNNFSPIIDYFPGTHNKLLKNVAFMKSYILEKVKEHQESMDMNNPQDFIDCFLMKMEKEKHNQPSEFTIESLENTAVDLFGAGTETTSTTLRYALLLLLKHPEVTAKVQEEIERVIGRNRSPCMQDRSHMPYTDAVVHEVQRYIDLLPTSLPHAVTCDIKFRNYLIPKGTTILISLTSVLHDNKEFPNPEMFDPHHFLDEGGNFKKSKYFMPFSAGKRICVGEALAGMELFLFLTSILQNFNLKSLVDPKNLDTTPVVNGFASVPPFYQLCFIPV

SMILES | IC50 [1] | IC50 [2] | Ki [2] | IC50 [3] | Ki [3] | IC50 [4] | IC50 [5] | Ki [5] | IC50 [6] | Ki [6] | IC50 [7] | IC50 [8] | IC50 ([2]; read-out: IC50) [nM]
Cc1c(C)c2c(c(C)c1O)CC[C@@](C)(CCC[C@H](C)CCC[C@H](C)CCCC(C)C)O2 [ALPHA-TOCOPHEROL] | Not Active | Not Active | Not Active | Not Active | Not Active | Not Active | Not Active | Not Active | Not Active | Not Active | Not Active | Not Active | –
Cc1c2oc3c(C)ccc(C(=O)N[C@@H]4C(=O)N[C@H](C(C)C)C(=O)N5CCC[C@H]5C(=O)N(C)CC(=O)N(C)[C@@H](C(C)C)C(=O)O[C@@H]4C)c3nc-2c(C(=O)N[C@@H]2C(=O)N[C@H](C(C)C)C(=O)N3CCC[C@H]3C(=O)N(C)CC(=O)N(C)[C@@H](C(C)C)C(=O)O[C@@H]2C)c(N)c1=O [DACTINOMYCIN] (I: T[dV]P[Sar][NMeV] / II: T[dV]P[Sar][NMeV]; ester I:1-I:C, II:1-II:C; linker I:N-II:N via Actinocin(1to9)) | Not Active | Not Active | Not Active | Not Active | Not Active | Not Active | Not Active | Not Active | Not Active | Not Active | Not Active | Not Active | –
C[C@H](CCC(=O)O)[C@H]1CC[C@H]2[C@@H]3[C@H](O)C[C@@H]4C[C@H](O)CC[C@]4(C)[C@H]3C[C@H](O)[C@]12C [CHOLIC ACID] | Not Active | Not Active | Not Active | Not Active | Not Active | Not Active | Not Active | Not Active | Not Active | Not Active | Not Active | Not Active | –
CN(Cc1ccc(C(C)(C)C)cc1)Cc1cccc2ccccc12 [BUTENAFINE] | Not Active | Not Active | Not Active | Not Active | Not Active | Not Active | Not Active | Not Active | Not Active | Not Active | Not Active | Not Active | –
C[C@H]1O[C@@H](O[C@H]2[C@@H](O)C[C@H](O[C@H]3[C@@H](O)C[C@H](O[C@H]4CC[C@@]5(C)[C@H](CC[C@@H]6[C@@H]5C[C@@H](O)[C@]5(C)[C@@H](C7=CC(=O)OC7)CC[C@]65O)C4)O[C@@H]3C)O[C@@H]2C)C[C@H](O)[C@@H]1O [DIGOXIN] | Not Active | – | – | Not Active | Not Active | Not Active | Not Active | Not Active | Not Active | Not Active | Not Active | Not Active | 1650
CNCCc1ccccn1 [BETAHISTINE] | Not Active | Not Active | Not Active | Not Active | Not Active | Not Active | Not Active | Not Active | Not Active | Not Active | Not Active | Not Active | –
O=C(O)CCCc1ccc(N(CCCl)CCCl)cc1 [CHLORAMBUCIL] | Not Active | Not Active | Not Active | Not Active | Not Active | Not Active | Not Active | Not Active | Not Active | Not Active | Not Active | Not Active | –
NC(=O)N1c2ccccc2CCc2ccccc21 | Not Active | Not Active | Not Active | Not Active | Not Active | Not Active | Not Active | Not Active | Not Active | Not Active | Not Active | Not Active | –
